Measured values reported in ChEMBL document CHEMBL4396928, “Discovery of Selective, Orally Bioavailable Pyrazolopyridine Inhibitors of Protein Kinase Cθ (PKCθ) That Ameliorate Symptoms of Experimental Autoimmune Encephalomyelitis” (ACS Med Chem Lett, 2019).

Assays:
[1] = biological target: Protein kinase C theta type (Homo sapiens, UniProt Q04759); assay: Inhibition of human recombinant full length His tagged PKC theta expressed in baculovirus using ERMRPRKRQGSVRRRV peptide as substrate incubated for 60 mins in presence of [33P] gammaATP by microbeta liquid scintillation counter
Protein kinase C theta type, sequence (Q04759 whole entry): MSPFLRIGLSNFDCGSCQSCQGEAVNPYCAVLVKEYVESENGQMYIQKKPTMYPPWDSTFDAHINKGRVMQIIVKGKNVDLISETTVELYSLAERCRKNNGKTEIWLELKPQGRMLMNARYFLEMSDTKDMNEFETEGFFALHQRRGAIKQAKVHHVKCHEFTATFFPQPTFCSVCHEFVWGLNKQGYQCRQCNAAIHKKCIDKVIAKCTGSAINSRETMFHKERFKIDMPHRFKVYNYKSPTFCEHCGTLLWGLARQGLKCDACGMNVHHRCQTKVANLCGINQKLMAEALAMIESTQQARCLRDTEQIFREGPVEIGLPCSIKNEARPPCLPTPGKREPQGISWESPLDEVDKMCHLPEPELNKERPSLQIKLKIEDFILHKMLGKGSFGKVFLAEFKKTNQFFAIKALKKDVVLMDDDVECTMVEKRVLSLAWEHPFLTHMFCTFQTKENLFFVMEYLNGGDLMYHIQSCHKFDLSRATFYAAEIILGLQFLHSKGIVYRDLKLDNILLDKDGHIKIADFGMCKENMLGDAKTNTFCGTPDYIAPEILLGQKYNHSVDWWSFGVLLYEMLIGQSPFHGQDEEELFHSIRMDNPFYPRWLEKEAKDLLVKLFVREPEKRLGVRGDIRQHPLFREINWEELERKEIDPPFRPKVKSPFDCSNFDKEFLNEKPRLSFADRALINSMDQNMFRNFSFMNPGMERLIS

[2] = species: Homo sapiens; assay: Selectivity ratio Ki for recombinant full length PKC delta (unknown origin) to Ki for human recombinant full length His-tagged PKC theta
[3] = test system: PBMC; assay: Inhibition of IL-2 secretion from human PBMC cells stimulated with anti-CD3/CD28 measured after 24 hrs by bead-based FLISA; assay type: functional, cell-based
[4] = Lipophilicity, logD of compound; assay type: physicochemical; settings: octanol/water
[5] = biological target: Protein kinase C alpha type (Homo sapiens, UniProt P17252); assay: Inhibition of recombinant full length PKC alpha (unknown origin) using RRRRRKGSFKRKA peptide as substrate measured after 15 mins in presence of ATP by spectrophotometric analysis
[6] = biological target: Protein kinase C delta type (Homo sapiens, UniProt Q05655); assay: Inhibition of recombinant full length PKC delta (unknown origin) using ERMRPRKR- QGSVRRRV peptide as substrate measured after 15 mins in presence of ATP by spectrophotometric analysis
Protein kinase C delta type, sequence (Q05655 whole entry): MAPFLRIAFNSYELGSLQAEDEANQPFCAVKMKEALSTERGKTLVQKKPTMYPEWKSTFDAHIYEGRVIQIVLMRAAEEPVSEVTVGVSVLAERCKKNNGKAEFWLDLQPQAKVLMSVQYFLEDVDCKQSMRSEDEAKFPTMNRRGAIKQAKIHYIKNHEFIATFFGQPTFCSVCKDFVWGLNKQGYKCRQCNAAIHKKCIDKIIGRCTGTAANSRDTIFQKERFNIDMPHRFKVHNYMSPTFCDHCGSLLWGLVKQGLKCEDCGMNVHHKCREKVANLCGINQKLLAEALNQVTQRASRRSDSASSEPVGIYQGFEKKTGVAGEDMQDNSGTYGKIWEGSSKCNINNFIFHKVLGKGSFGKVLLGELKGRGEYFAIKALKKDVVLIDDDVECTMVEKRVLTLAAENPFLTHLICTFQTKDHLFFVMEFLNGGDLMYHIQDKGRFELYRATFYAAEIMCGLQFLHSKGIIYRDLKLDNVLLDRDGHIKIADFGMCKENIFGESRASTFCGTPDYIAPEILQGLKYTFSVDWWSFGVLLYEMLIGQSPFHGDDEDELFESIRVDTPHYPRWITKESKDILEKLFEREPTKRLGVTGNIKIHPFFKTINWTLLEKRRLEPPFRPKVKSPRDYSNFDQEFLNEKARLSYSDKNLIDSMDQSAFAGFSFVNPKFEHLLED

[7] = biological target: cAMP-dependent protein kinase catalytic subunit alpha (Homo sapiens, UniProt P17612); assay: Inhibition of protein kinase A (unknown origin) using Kemptide (LRRASLG) as substrate incubated for 15 mins in presence of ATP by spectrophotometric analysis
[8] = biological target: Glycogen synthase kinase-3 beta (Homo sapiens, UniProt P49841); assay: Inhibition of GSK-3beta (unknown origin) using HSSPHQS(PO3H2)EDEEE peptide as substrate measured after 15 mins in presence of ATP by spectrophotometric analysis
[9] = biological target: Rho-associated protein kinase (Homo sapiens, UniProt O75116+Q13464); assay: Inhibition of ROCK (unknown origin) using Myelin Basic Protein as substrate incubated for 60 mins in presence of [33P] gammaATP by microbeta liquid scintillation counter; assay type: protein assay
[10] = biological target: T1, Tyrosine-protein kinase JAK3 (Homo sapiens, UniProt P52333); assay: Inhibition of JAK3 (unknown origin)
T1 sequence (P52333 whole entry): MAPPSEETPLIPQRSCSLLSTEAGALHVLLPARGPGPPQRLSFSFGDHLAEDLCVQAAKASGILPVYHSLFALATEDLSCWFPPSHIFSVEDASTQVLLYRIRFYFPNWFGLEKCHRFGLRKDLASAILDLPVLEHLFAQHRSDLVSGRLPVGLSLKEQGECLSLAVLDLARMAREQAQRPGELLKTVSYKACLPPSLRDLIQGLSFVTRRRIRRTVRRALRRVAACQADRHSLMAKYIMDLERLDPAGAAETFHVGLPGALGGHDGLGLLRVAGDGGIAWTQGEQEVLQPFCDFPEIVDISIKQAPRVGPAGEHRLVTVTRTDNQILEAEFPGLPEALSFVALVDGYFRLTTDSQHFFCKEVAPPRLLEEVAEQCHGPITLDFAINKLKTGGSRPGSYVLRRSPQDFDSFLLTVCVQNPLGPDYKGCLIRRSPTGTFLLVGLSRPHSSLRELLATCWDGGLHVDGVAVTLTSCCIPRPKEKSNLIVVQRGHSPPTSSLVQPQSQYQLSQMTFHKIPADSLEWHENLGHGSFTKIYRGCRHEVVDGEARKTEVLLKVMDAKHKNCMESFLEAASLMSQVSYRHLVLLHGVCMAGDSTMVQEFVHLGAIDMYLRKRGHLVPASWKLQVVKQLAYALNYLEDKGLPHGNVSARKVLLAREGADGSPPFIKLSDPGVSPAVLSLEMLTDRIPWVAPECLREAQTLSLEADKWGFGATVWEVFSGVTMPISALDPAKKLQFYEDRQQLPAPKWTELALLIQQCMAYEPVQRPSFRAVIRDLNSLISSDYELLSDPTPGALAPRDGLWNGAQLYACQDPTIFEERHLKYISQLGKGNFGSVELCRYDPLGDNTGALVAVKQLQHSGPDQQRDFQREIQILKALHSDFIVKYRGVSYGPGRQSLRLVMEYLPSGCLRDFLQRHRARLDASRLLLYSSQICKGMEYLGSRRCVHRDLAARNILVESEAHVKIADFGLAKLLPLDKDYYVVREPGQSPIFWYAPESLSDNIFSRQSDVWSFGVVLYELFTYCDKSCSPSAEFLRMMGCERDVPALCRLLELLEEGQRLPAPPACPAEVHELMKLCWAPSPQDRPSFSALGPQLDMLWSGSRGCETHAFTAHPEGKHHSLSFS

[11] = biological target: T2, Receptor-type tyrosine-protein kinase FLT3 (Homo sapiens, UniProt P36888); assay: Inhibition of FLT3 (unknown origin) using polyE4Y peptide as substrate incubated for 60 mins in presence of [33P] gammaATP by microbeta liquid scintillation counter
T2 sequence (P36888 whole entry): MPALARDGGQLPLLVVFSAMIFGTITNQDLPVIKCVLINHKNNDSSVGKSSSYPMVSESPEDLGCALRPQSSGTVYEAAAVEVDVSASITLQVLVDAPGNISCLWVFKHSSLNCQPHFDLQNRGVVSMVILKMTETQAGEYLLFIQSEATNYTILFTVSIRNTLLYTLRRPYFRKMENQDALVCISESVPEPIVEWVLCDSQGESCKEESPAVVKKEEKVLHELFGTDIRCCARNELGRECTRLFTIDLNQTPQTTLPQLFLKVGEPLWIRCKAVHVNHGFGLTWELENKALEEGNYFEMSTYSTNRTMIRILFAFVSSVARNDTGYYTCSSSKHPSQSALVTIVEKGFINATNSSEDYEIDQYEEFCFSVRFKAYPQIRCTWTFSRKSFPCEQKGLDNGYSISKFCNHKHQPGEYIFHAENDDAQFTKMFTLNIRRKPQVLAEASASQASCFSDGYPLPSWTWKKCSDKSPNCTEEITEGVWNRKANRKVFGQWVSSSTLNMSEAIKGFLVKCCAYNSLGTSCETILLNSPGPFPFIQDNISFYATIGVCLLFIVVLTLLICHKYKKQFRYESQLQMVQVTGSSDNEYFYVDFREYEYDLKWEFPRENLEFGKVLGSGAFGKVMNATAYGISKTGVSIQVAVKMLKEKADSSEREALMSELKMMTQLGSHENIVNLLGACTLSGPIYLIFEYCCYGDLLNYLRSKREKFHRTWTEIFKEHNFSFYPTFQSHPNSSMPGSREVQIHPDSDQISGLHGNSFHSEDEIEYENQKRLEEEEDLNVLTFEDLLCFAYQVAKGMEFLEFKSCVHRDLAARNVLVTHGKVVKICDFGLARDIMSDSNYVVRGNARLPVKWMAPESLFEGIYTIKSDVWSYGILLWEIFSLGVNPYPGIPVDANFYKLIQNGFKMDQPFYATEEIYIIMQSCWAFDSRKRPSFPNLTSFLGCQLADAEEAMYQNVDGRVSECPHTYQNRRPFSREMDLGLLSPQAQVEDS

[12] = biological target: Tyrosine-protein kinase JAK2 (Homo sapiens, UniProt O60674); assay: Inhibition of JAK2 (unknown origin) using polyE4Y peptide as substrate incubated for 60 mins in presence of [33P] gammaATP by microbeta liquid scintillation counter
Tyrosine-protein kinase JAK2, sequence (O60674 whole entry): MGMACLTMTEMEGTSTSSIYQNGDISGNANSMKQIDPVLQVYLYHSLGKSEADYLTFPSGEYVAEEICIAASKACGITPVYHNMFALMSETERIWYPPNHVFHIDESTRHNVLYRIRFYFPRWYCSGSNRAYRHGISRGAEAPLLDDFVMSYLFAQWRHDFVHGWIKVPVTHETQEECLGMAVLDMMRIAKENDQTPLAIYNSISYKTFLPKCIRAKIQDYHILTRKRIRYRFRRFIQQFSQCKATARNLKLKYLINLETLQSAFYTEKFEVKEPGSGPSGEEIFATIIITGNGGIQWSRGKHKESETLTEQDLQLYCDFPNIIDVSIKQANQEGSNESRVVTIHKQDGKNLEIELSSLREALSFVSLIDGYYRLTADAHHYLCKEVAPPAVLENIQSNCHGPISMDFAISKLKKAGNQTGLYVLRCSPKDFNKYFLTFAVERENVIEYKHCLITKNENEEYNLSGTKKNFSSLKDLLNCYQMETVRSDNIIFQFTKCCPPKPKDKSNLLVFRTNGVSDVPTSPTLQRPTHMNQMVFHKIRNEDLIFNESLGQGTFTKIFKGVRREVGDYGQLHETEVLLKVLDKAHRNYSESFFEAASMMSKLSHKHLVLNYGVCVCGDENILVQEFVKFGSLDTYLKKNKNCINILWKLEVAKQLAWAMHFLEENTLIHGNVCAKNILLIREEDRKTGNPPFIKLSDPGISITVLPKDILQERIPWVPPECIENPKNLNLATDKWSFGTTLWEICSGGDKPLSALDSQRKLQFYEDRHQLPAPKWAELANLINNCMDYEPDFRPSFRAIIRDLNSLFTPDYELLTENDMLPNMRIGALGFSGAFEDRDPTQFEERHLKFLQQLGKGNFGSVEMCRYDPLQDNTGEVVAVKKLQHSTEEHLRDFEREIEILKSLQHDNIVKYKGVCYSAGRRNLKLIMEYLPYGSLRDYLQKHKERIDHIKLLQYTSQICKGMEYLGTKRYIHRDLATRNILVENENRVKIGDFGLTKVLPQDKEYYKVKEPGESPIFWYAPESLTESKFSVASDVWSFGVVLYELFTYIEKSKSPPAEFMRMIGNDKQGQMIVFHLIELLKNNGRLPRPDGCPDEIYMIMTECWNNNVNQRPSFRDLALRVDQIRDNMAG

[13] = Unbound hepatic clearance in rat hepatocytes assessed per million cells; assay type: ADME, cell-based, Hepatocyte
[14] = Unbound hepatic clearance in human hepatocytes assessed per million cells; assay type: ADME, cell-based, Hepatocyte
[15] = Clearance in iv dosed rat; assay type: ADME, organism-based; settings: in vivo
[16] = Half-life in iv dosed rat; assay type: ADME, organism-based; settings: in vivo
[17] = Volume of distribution at steady state in iv dosed rat; assay type: ADME, organism-based; settings: in vivo, read-out: Vdss
[18] = species: Homo sapiens; assay: Selectivity ratio Ki for recombinant full length PKC alpha (unknown origin) to Ki for human recombinant full length His-tagged PKC theta
[19] = biological target: Voltage-gated inwardly rectifying potassium channel KCNH2 (Homo sapiens, UniProt Q12809); assay: Inhibition of human ERG
Voltage-gated inwardly rectifying potassium channel KCNH2, sequence (Q12809 whole entry): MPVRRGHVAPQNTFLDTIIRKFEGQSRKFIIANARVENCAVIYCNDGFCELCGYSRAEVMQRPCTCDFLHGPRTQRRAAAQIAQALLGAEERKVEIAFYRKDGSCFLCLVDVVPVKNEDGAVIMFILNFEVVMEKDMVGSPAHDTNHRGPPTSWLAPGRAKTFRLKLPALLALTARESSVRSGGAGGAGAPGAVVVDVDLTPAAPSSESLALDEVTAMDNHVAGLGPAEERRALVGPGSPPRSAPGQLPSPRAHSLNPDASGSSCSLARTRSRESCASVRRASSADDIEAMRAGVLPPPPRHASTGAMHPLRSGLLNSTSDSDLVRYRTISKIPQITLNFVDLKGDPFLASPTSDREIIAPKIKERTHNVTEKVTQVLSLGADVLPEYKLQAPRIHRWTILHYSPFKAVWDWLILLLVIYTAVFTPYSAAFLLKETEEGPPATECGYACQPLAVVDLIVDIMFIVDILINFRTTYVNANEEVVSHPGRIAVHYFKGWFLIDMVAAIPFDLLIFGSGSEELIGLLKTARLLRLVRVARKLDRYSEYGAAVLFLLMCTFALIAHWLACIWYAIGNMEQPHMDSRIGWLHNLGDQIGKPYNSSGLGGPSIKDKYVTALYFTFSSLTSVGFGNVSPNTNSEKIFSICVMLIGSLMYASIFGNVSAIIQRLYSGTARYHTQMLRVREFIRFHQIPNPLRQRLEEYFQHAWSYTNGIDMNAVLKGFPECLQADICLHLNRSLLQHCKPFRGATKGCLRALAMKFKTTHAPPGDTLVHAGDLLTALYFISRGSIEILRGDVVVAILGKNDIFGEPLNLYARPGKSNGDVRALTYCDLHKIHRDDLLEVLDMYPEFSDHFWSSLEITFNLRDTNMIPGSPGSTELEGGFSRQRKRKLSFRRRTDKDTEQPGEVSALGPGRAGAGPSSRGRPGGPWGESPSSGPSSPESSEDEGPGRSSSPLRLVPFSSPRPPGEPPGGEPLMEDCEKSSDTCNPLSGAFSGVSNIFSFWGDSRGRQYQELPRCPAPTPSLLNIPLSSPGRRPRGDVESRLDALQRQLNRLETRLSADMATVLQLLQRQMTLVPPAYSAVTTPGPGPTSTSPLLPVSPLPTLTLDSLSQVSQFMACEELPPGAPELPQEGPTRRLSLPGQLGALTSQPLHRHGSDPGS

[20] = Stability of compound in human liver microsomes assessed as compound remaining at 30 mins; assay type: ADME, Microsome; settings: read-out: Stability
[21] = Stability of compound in rat liver microsomes assessed as compound remaining at 30 mins; assay type: ADME, Microsome; settings: read-out: Stability
[22] = test system: HFL1; assay: Cytotoxicity against human HFL1 cells assessed as growth inhibition measured after 48 hrs by 3H-thymidine incorporation assay; assay type: cell-based
[23] = Dissociation constant, pKa of compound; assay type: physicochemical
[24] = Permeability across apical to basolateral side in human Caco2 cells measured at 120 mins by LC-MS/MS analysis; assay type: ADME, cell-based; settings: Caco-2, read-out: permeability
[25] = Efflux ratio of permeability in human Caco2 cells by LC-MS/MS analysis; assay type: ADME, cell-based; settings: Caco-2
[26] = biological target: Cytochrome P450 2C9 (Homo sapiens, UniProt P11712); assay: Inhibition of CYP2C9 (unknown origin) at 4 uM; assay type: ADME
[27] = biological target: Cytochrome P450 2D6 (Homo sapiens, UniProt P10635); assay: Inhibition of CYP2D6 (unknown origin) at 8 uM; assay type: ADME
[28] = biological target: Cytochrome P450 3A4 (Homo sapiens, UniProt P08684); assay: Inhibition of CYP3A4 (unknown origin) at 16 uM; assay type: ADME
Cytochrome P450 3A4, sequence (P08684 whole entry): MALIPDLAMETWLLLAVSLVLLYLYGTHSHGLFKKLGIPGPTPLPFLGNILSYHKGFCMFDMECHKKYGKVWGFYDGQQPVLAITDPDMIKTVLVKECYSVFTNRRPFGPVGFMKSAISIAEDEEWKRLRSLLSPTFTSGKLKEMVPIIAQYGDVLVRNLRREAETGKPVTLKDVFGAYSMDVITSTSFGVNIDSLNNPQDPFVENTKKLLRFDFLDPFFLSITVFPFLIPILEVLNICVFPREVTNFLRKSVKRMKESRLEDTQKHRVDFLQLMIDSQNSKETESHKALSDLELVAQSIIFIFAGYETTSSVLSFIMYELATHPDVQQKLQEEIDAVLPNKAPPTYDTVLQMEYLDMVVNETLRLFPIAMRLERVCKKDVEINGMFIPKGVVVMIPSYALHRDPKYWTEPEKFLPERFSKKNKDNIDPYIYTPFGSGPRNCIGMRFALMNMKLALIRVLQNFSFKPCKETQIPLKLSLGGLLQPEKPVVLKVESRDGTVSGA

| SMILES | Ki [1] [nM] | Ratio Ki [2] | IC50 [3] [nM] | Ki [6] [nM] | Ratio Ki [18] | other results |
| --- | --- | --- | --- | --- | --- | --- |
| CCC(C)(CN)c1cc(C)cc(-c2ccnc3[nH]ncc23)c1 (configuration not stated) | 5 | 24 | 260 |  |  |  |
| CC(C)(C#N)c1cccc(-c2ccnc3[nH]ccc23)n1 | 3 |  |  | 12 |  | logD [4]: 3.4; Ki [5]: 110 nM; Ki [7]: 110 nM; Ki [8]: 210 nM; Ki [9]: 6 nM; Ki [10]: 3 nM; Ki [11]: 100 nM; Ki [12]: 13 nM; CL free [13]: 156 µL/min; CL free [14]: 24 µL/min; clearance [15]: 42 mL/min/kg; half-life [16]: 18 min; Vd [17]: 0.99 L/kg |
| CCCc1cc(-c2ccnc3[nH]ncc23)cc(C(C)(CC)CN)c1 (configuration not stated) | 32 | 39 | 200 |  |  |  |
| CCC(C)(CN)c1cccc(-c2ccnc3[nH]ncc23)c1 (configuration not stated) | 3 | 13 to 24 | 170 |  | 37 |  |
| CC(C)(CN)c1cccc(-c2ccnc3[nH]ncc23)c1 | 12 | 16 | 330 |  | 50 |  |
| NCC1(c2cccc(-c3ccnc4[nH]ncc34)c2)CCOCC1 | 9 | 111 | 550 |  | 93 |  |
| NCC1(c2cccc(-c3ccnc4[nH]nc(C(F)(F)F)c34)c2)CCC1 | 2 |  | 90 | 60 |  | IC50 [19]: 3 µM; Ki [5]: 57 nM; remaining at 0.5 h [20]: 81%; remaining at 0.5 h [21]: 88%; IC50 [22]: 1900 nM; pKa [23]: 8.8 |
| NCC1(c2cccc(-c3ccnc4[nH]nc(C(F)(F)F)c34)c2)CCOCC1 | 9 |  | 130 | 184 |  | IC50 [19]: > 10 µM; Ki [5]: 468 nM; Ki [7]: 30 nM; Ki [11]: 46 nM; remaining at 0.5 h [20]: 96%; remaining at 0.5 h [21]: 65%; IC50 [22]: 3300 nM |
| CCC(C)(CN)c1cccc(-c2ccnc3[nH]nc(C(F)(F)F)c23)c1 (configuration not stated) | 0.4 | 25 | 10 |  |  | clearance [15]: 45 mL/min/kg; half-life [16]: 108 min; Vd [17]: 2.7 L/kg |
| CC(C)(C#N)c1cccc(-c2ccnc3[nH]ncc23)c1 | 28 |  |  | 584 |  | Papp A→B at 2 h [24]: 36 ×10⁻⁶ cm/s; Ki [9]: 560 nM; Ki [12]: 270 nM; CL free [13]: 58 µL/min; CL free [14]: 172 µL/min; clearance [15]: 12 mL/min/kg; half-life [16]: 276 min; Vd [17]: 0.94 L/kg; efflux ratio [25]: 0.7 |
| NCC1(c2cccc(-c3ccnc4[nH]ncc34)c2)CCCCC1 | 30 | 8 | 580 |  | 18 |  |
| CCC(C)(CN)c1cccc(-c2ccnc3[nH]nc(C)c23)c1 (configuration not stated) | < 1 | > 16 | 100 |  |  |  |
| NCC1(c2cccc(-c3ccnc4[nH]ncc34)c2)CCCC1 | 22 | 18 | 350 |  | 28 |  |
| NCC1(c2cccc(-c3ccnc4[nH]ncc34)c2)CCC1 | 17 | 18 | 300 |  | 41 |  |
| C#CCC(C)(CN)c1cccc(-c2ccnc3[nH]ncc23)c1 (configuration not stated) | 0.2 | 36 | 20 |  | 149 |  |
| Cc1cc(-c2ccnc3[nH]nc(C(F)(F)F)c23)cc(C2(CN)CCC2)c1 | 3 |  | 60 | 135 |  | logD [4]: 2.9; inhibition (INH) [26]: Active; IC50 [19]: 0.7 µM; Ki [5]: 60 nM; inhibition (INH) [27]: Active; remaining at 0.5 h [20]: 81%; remaining at 0.5 h [21]: 56%; IC50 [22]: 650 nM; inhibition (INH) [28]: Active; pKa [23]: 8.8 |
| CCc1cc(-c2ccnc3[nH]ncc23)cc(C(C)(CC)CN)c1 (configuration not stated) | 14 | 39 | 250 |  |  |  |
| CCC(C)(C#N)c1cccc(-c2ccnc3[nH]ncc23)c1 (configuration not stated) | 72 |  | 2700 |  |  |  |
| CC(C)(C#N)c1cccc(-c2ccnc3[nH]ncc23)n1 | 14 |  |  | 240 |  | logD [4]: 2.9; Papp A→B at 2 h [24]: 20.1 ×10⁻⁶ cm/s; Ki [5]: 465 nM; Ki [9]: 210 nM; Ki [12]: 86 nM; CL free [13]: 24 µL/min; CL free [14]: 33 µL/min; clearance [15]: 22 mL/min/kg; half-life [16]: 150 min; Vd [17]: 1.22 L/kg; efflux ratio [25]: 0.95 |
| CCC(C)(CN)c1cccc(-c2ccnc3[nH]nc(Cl)c23)c1 (configuration not stated) | 0.3 | 22 | 20 |  |  |  |
